Results reported in ChEMBL document CHEMBL4406826, “Discovery of δ-sultone-fused pyrazoles for treating Alzheimer's disease: Design, synthesis, biological evaluation and SAR studies” (Eur J Med Chem, 2019).
Calls of active or inactive are those of the source.

What was measured:
[1] = molecular target: Acetylcholinesterase (Electrophorus electricus) (UniProt O42275); test: Inhibition of electric eel AChE at 20 uM using acetylthiocholine iodide as substrate preincubated with enzyme for 20 mins followed by substrate addition by Ellman's method relative to control
Sequence of Acetylcholinesterase (Electrophorus electricus) (O42275 24-633 limits assumed): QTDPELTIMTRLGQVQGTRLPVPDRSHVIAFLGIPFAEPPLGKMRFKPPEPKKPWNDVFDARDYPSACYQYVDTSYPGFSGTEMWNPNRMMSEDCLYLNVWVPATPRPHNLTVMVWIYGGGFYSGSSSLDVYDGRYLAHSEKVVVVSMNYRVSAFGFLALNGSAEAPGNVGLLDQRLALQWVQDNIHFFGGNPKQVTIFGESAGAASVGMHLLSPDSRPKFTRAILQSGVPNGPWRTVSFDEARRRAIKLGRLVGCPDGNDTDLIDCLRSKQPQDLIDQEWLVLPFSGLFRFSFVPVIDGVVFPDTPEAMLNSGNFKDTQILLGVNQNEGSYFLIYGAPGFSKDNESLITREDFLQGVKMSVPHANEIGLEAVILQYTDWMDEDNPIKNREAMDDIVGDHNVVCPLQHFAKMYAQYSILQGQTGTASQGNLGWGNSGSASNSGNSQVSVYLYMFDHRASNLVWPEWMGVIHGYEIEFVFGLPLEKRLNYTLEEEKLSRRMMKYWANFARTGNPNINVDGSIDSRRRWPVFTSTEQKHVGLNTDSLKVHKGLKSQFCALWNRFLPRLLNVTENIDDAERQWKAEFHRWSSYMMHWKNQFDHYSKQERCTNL

[2] = molecular target: Cholinesterase (Equus caballus, UniProt P81908); test: Inhibition of equine serum BuChE using butyrylthiocholine iodide as substrate preincubated with enzyme for 20 mins followed by substrate addition by Ellman's method
Sequence of Cholinesterase (P81908 whole entry): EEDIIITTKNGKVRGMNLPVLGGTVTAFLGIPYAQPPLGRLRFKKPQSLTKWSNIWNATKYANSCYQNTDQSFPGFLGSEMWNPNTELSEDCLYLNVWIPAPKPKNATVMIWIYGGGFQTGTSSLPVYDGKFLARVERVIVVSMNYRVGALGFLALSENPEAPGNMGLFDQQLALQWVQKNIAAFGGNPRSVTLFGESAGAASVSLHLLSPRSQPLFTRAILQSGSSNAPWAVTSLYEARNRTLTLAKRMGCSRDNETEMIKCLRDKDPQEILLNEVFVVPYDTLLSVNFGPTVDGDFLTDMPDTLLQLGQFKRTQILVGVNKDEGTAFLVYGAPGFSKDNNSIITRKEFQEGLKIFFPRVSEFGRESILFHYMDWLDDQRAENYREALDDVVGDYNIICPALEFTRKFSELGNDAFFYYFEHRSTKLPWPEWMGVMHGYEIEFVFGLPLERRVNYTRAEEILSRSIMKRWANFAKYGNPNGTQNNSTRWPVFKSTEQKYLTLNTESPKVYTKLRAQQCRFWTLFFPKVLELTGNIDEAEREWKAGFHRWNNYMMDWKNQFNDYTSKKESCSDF

[3] = molecular target: Cholinesterase (Equus caballus) (UniProt P81908); test: Inhibition of equine serum BuChE at 20 uM using butyrylthiocholine iodide as substrate preincubated with enzyme for 20 mins followed by substrate addition by Ellman's method relative to control
Sequence of Cholinesterase (Equus caballus) (P81908 whole entry): as above

[4] = Octanol-PBS buffer partition coefficient, log P of the compound incubated for 24 hrs measured at pH 7.4 by shake-flask method; format: physicochemical

Row | SMILES | inhibition [1] | IC50 [2] [µM] | inhibition [3] | logD at 24 h [4]
1 | COc1ccc(-c2nn(-c3ccc(Cl)cc3)c3c2C(c2ccc(C#N)cc2)CS(=O)(=O)O3)cc1 (centres undefined) | inactive | 21 |  | 
2 | COc1ccc(-c2nn(-c3ccc(Cl)cc3)c3c2C(c2ccc(F)cc2)CS(=O)(=O)O3)cc1 (centres undefined) | inactive |  | 7% | 
3 | N#Cc1ccc(C2CS(=O)(=O)Oc3c2c(C2CC2)nn3-c2ccccc2Cl)cc1 (centres undefined) | inactive |  | 7% | 
4 | Cc1cc(C2CS(=O)(=O)Oc3c2c(C2CC2)nn3-c2cccc(F)c2)ccc1Br (centres undefined) | inactive | 11.5 |  | 
5 | Cc1nn(-c2cccc(Cl)c2)c2c1C(c1ccc(F)cc1)CS(=O)(=O)O2 (centres undefined) | inactive |  | inactive | 
6 | COc1ccc(-c2nn(-c3ccc(Cl)cc3)c3c2C(c2cccc(OC)c2)CS(=O)(=O)O3)cc1 (centres undefined) | inactive |  | 42% | 
7 | COc1ccc(-n2nc(C)c3c2OS(=O)(=O)CC3c2ccc(F)cc2)cc1 (centres undefined) | inactive |  | 15% | 
8 | Cc1nn(-c2ccccc2)c2c1C(c1cccs1)CS(=O)(=O)O2 (centres undefined) | inactive |  | 42% | 
9 | Cc1nn(-c2ccccc2)c2c1C(c1cnn(-c3ccccc3)c1)CS(=O)(=O)O2 (centres undefined) | inactive |  | 14% | 
10 | COc1ccc(-c2nn(-c3ccccc3Cl)c3c2C(c2ccc(F)cc2)CS(=O)(=O)O3)cc1 (centres undefined) | inactive |  | inactive | 
11 | Cc1ccc(C2CS(=O)(=O)Oc3c2c(C)nn3-c2ccccc2)cc1Br (centres undefined) | inactive | 18.3 |  | 
12 | Cc1nn(-c2ccc(Br)cc2)c2c1C(c1ccccc1)CS(=O)(=O)O2 (centres undefined) | inactive |  | inactive | 
13 | Cc1nn(-c2ccccc2)c2c1C(c1ccc(-c3ccccc3)cc1)CS(=O)(=O)O2 (centres undefined) | 12% |  | inactive | 
14 | Cc1cc(C2CS(=O)(=O)Oc3c2c(C2CC2)nn3-c2ccccc2F)ccc1Br (centres undefined) | inactive | 5.71 |  | 2.72
15 | Cc1nn(-c2ccc(Cl)cc2)c2c1C(c1ccc(F)cc1)CS(=O)(=O)O2 (centres undefined) | inactive |  | inactive | 
16 | Cc1cccc(C2CS(=O)(=O)Oc3c2c(C)nn3-c2ccccc2)c1 (centres undefined) | inactive | 17.7 |  | 
17 | Cc1nn(-c2ccccc2)c2c1C(c1cc3ccccc3s1)CS(=O)(=O)O2 (centres undefined) | 14% |  | 33% | 
18 | CC(=O)c1cccc(C2CS(=O)(=O)Oc3c2c(C)nn3-c2ccccc2)c1 (centres undefined) | inactive |  | 24% | 
19 | Cc1nn(-c2ccccc2)c2c1C(c1cc3ccccc3o1)CS(=O)(=O)O2 (centres undefined) | inactive | 2.6 |  | 
20 | Cc1cc(C2CS(=O)(=O)Oc3c2c(C)nn3-c2cccc(Cl)c2)ccc1Br (centres undefined) | inactive |  | inactive | 
21 | O=S1(=O)CC(c2ccc(F)cc2)c2c(C3CC3)nn(-c3ccccc3Cl)c2O1 (centres undefined) | inactive | 6.02 |  | 2.04
22 | COc1ccc(-c2nn(-c3ccccc3Cl)c3c2C(c2ccc(Br)c(C)c2)CS(=O)(=O)O3)cc1 (centres undefined) | inactive |  | 35% | 
23 | Cc1nn(-c2cccc(F)c2)c2c1C(c1cccc(F)c1)CS(=O)(=O)O2 (centres undefined) | inactive |  | inactive | 

Row | SMILES | inhibition [1] | IC50 [2] [µM] | inhibition [3] | logD at 24 h [4]
24 | O=C1CCCC2=C1C(c1ccc([N+](=O)[O-])cc1)CS(=O)(=O)O2 (centres undefined) | inactive |  | 25% | 
25 | COc1cccc(C2CS(=O)(=O)Oc3c2c(C)nn3-c2cccc(Cl)c2)c1 (centres undefined) | inactive |  | inactive | 
26 | Cc1nn(-c2ccccc2)c2c1C(/C=C/c1ccc(C(F)(F)F)cc1)CS(=O)(=O)O2 (centres undefined) | 19% |  | inactive | 
27 | COc1ccc(-c2nn(-c3ccccc3F)c3c2C(c2ccc(F)cc2)CS(=O)(=O)O3)cc1 (centres undefined) | inactive |  | inactive | 
28 | Cc1cc(C2CS(=O)(=O)Oc3c2c(C)nn3-c2ccccc2F)ccc1Br (centres undefined) | inactive | 3.83 |  | 2.26
29 | CC(=O)C1=C(C)OS(=O)(=O)CC1c1ccc([N+](=O)[O-])cc1 (centres undefined) | inactive |  | inactive | 
30 | O=S1(=O)CC(c2cccc(C(F)(F)F)c2)c2c(C3CC3)nn(-c3ccccc3Cl)c2O1 (centres undefined) | inactive |  | inactive | 
31 | O=S1(=O)CC(c2cccc(F)c2)c2c(C3CC3)nn(-c3ccccc3F)c2O1 (centres undefined) | inactive | 4.01 |  | 2.86
32 | Cc1ccc(-n2nc(C)c3c2OS(=O)(=O)CC3c2ccccc2)cc1 (centres undefined) | inactive |  | inactive | 
33 | Cc1nn(-c2ccccc2)c2c1C(c1ccc(C#N)cc1)CS(=O)(=O)O2 (centres undefined) | inactive |  | 15% | 
34 | COc1cccc(C2CS(=O)(=O)Oc3c2c(C)nn3-c2ccccc2)c1 (centres undefined) | inactive | 11 |  | 
35 | COc1ccccc1C1CS(=O)(=O)Oc2c1c(C)nn2-c1ccccc1 (centres undefined) | inactive |  | 31% | 
36 | Cc1nn(-c2ccccc2)c2c1C(c1ccc3ccccc3c1)CS(=O)(=O)O2 (centres undefined) | inactive |  | inactive | 
37 | COc1ccc(-n2nc(C)c3c2OS(=O)(=O)CC3c2ccc(Br)c(C)c2)cc1 (centres undefined) | inactive |  | inactive | 
38 | N#Cc1ccc(C2CS(=O)(=O)Oc3c2c(C2CC2)nn3-c2cccc(Cl)c2)cc1 (centres undefined) | inactive |  | inactive | 
39 | Cc1nn(-c2ccccc2)c2c1CCS(=O)(=O)O2 | inactive |  | inactive | 
40 | Cc1nn(-c2cccc(Cl)c2)c2c1C(c1cccc(F)c1)CS(=O)(=O)O2 (centres undefined) | inactive |  | inactive | 
41 | Cc1nn(-c2ccccc2F)c2c1CCS(=O)(=O)O2 | inactive | 1.8 |  | 1.86
42 | Cc1nn(-c2cccc(F)c2)c2c1C(c1ccc(F)cc1)CS(=O)(=O)O2 (centres undefined) | inactive |  | inactive | 
43 | Cc1nn(-c2ccccc2)c2c1C(c1cccc([N+](=O)[O-])c1)CS(=O)(=O)O2 (centres undefined) | inactive |  | 23% | 
44 | COc1ccc(-c2nn(-c3ccc(Cl)cc3)c3c2C(c2ccc(Br)c(C)c2)CS(=O)(=O)O3)cc1 (centres undefined) | inactive | 13.3 |  | 
45 | Cc1cccc(-n2nc(C)c3c2OS(=O)(=O)CC3c2ccccc2)c1 (centres undefined) | inactive |  | inactive | 
46 | Cc1nn(-c2ccccc2)c2c1C(/C=C/c1ccc(Br)cc1)CS(=O)(=O)O2 (centres undefined) | inactive |  | inactive | 

Row | SMILES | inhibition [1] | IC50 [2] [µM] | inhibition [3] | logD at 24 h [4]
47 | Cc1nn(-c2ccccc2)c2c1C(c1ccc(F)cc1)CS(=O)(=O)O2 (centres undefined) | inactive |  | 37% | 
48 | Cc1nn(-c2ccccc2)c2c1C(c1cccc3c1sc1ccccc13)CS(=O)(=O)O2 (centres undefined) | inactive |  | inactive | 
49 | Cc1cc(C2CS(=O)(=O)Oc3c2c(C2CC2)nn3-c2ccccc2Cl)ccc1Br (centres undefined) | inactive | 3.77 |  | 2.53
50 | Cc1nn(-c2ccc(Cl)cc2)c2c1C(c1cccc(F)c1)CS(=O)(=O)O2 (centres undefined) | inactive |  | inactive | 
51 | Cc1cccc(/C=C/C2CS(=O)(=O)Oc3c2c(C)nn3-c2ccccc2)c1 (centres undefined) | 13% | 10.1 |  | 
52 | Cc1cc(C)cc(C2CS(=O)(=O)Oc3c2c(C)nn3-c2ccccc2)c1 (centres undefined) | inactive |  | inactive | 
53 | Cc1nn(-c2ccccc2)c2c1C(c1cccc(C3CS(=O)(=O)Oc4c3c(C)nn4-c3ccccc3)c1)CS(=O)(=O)O2 (centres undefined) | inactive |  | inactive | 
54 | CCOC(=O)c1ccc(C2CS(=O)(=O)Oc3c2c(C)nn3-c2ccccc2)cc1 (centres undefined) | inactive |  | inactive | 
55 | Cc1nn(-c2ccccc2)c2c1C(c1ccsc1)CS(=O)(=O)O2 (centres undefined) | inactive | 10.1 |  | 
56 | Cc1cc(C2CS(=O)(=O)Oc3c2c(C2CC2)nn3-c2cccc(Cl)c2)ccc1Br (centres undefined) | inactive |  | 34% | 
57 | Cc1nn(-c2ccc(F)cc2)c2c1C(c1ccccc1)CS(=O)(=O)O2 (centres undefined) | inactive |  | inactive | 
58 | Cc1nn(-c2ccccc2)c2c1C(c1ccc([N+](=O)[O-])cc1)CS(=O)(=O)O2 (centres undefined) | inactive |  | inactive | 
59 | Cc1nn(-c2ccccc2)c2c1C(c1cccc(C(F)(F)F)c1)CS(=O)(=O)O2 (centres undefined) | inactive | 16.4 |  | 
60 | Cc1ccc(C2CS(=O)(=O)Oc3c2c(C)nn3-c2ccccc2)cc1 (centres undefined) | inactive |  | inactive | 
61 | Cc1nn(-c2ccccc2)c2c1C(c1cccc(F)c1)CS(=O)(=O)O2 (centres undefined) | inactive | 9.82 |  | 
62 | COc1cccc(C2CS(=O)(=O)Oc3c2c(C2CC2)nn3-c2cccc(F)c2)c1 (centres undefined) | inactive | 14.3 |  | 
63 | COc1ccc(C2CS(=O)(=O)Oc3c2c(C)nn3-c2ccccc2)cc1 (centres undefined) | inactive | 9.35 |  | 
64 | Cc1nn(-c2ccccc2)c2c1C(/C=C/c1ccc(C(C)(C)C)cc1)CS(=O)(=O)O2 (centres undefined) | 11% |  | inactive | 
65 | Cc1ccc(-n2nc(C)c3c2OS(=O)(=O)CC3c2ccccc2)cc1C (centres undefined) | inactive |  | inactive | 
66 | CC1(C)CC(=O)C2=C(C1)OS(=O)(=O)CC2c1ccc([N+](=O)[O-])cc1 (centres undefined) | inactive |  | inactive | 
67 | CC(C)C(=O)C1=C(C(C)C)OS(=O)(=O)CC1c1ccc([N+](=O)[O-])cc1 (centres undefined) | inactive |  | inactive | 
68 | Cc1cc(C2CS(=O)(=O)Oc3c2c(C)nn3-c2ccc(Cl)cc2)ccc1Br (centres undefined) | inactive |  | 34% | 
69 | O=C1CCC2=C1C(c1ccc([N+](=O)[O-])cc1)CS(=O)(=O)O2 (centres undefined) | inactive |  | inactive | 
